This is an account of results in ChEMBL document CHEMBL1131404, “A new strong inhibitor of beta-mannosidase” (Bioorg Med Chem Lett, 1998).

A short description of experiment [1]: The compound was tested for its competitive inhibitory activity against Alpha-mannosidase.
The nature of experiment [2]: The compound was tested for its inhibitory activity against alpha-mannosidase using p-nitrophenylmannopyranoside as substrate.

Structures are written as SMILES.

As for `O=[N+]([O-])c1ccc(O/N=C2\OC(CO)C(O)C(O)C2O)c([N+](=O)[O-])c1` (centres undefined), the Ki (commonly the dissociation constant of the complex between target and ligand, obtained from inhibition or displacement) in experiment [1] amounted to 50 µM. In addition, the Km (commonly the substrate concentration at which the rate is half of its maximum) in experiment [2] came out at 570 µM.
Taken in the same sequence, the figures for `O=C(Nc1ccccc1)O/N=C1\OC(CO)C(O)C(O)C1O` (centres undefined) were 80 µM and 1200 µM.
